Experimental data as given in patent US11446287B2, “Compounds and methods for EP300 or CBP modulation and indications therefor” (Opna Immuno-Oncology SA, priority 2019, dated 2022).
pIC50: −log10 of the molar value.

Biological target: T1, Recombinant human BRD4 containing dual bromodomains (BRD4-BD12 (1-477)) (Homo sapiens, UniProt O60885)
T1 construct: Recombinant human BRD4 containing dual bromodomains (BRD4-BD12 (1-477)); made in house; host or cells: E. coli BL21-CodonPlus (DE3), modified pET vector
Experiment: BRD4 Alphascreen binding assay
Outline: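 His-tagged human BRD4 tandem bromodomains (1-477, E. coli) incubated 1 h at room temperature with biotinylated tetra-acetylated H4 (1-21) peptide and compound in HEPES pH 7.5 buffer with 2 mM DTT. AlphaScreen signal read 30 min after adding beads (7.5 μg/ml); IC50 from four-parameter fit after normalization to controls.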

SMILES	pIC50
CCOc1cc(C(=O)O)cc(OCC)c1-n1cc(-c2ccc(F)cc2F)c2ncc(-c3c(C)noc3C)cc21 [P-0186, 4-(3-(2,4-difluorophenyl)-6-(3,5-dimethylisoxazol-4-yl)-1H-pyrrolo[3,2-b]pyridin-1-yl)-3,5-diethoxybenzoic acid]	3.00 to 5.10
CCOc1cc(C(=O)O)cc(OCC)c1-n1cc(Cc2ccccn2)c2ncc(-c3c(C)noc3C)cc21 [P-0187, 4-(6-(3,5-dimethylisoxazol-4-yl)-3-(pyridin-2-ylmethyl)-1H-pyrrolo[3,2-b]pyridin-1-yl)-3,5-diethoxybenzoic acid]	3.00 to 5.10
Cc1noc(C)c1-c1cnc2c(c1)c(-c1ccc(C(=O)O)cc1OC(F)(F)F)cn2-c1ccccc1 [P-0188, 4-(5-(3,5-dimethylisoxazol-4-yl)-1-phenyl-1H-pyrrolo[2,3-b]pyridin-3-yl)-3-(trifluoromethoxy)benzoic acid]	5.10 to 6.00
Cc1ccncc1-n1cc(-c2ccc(C(=O)O)cc2OC(F)(F)F)c2cc(-c3c(C)noc3C)cnc21 [P-0189, 4-(5-(3,5-dimethylisoxazol-4-yl)-1-(4-methylpyridin-3-yl)-1H-pyrrolo[2,3-b]pyridin-3-yl)-3-(trifluoromethoxy)benzoic acid]	3.00 to 5.10
CCOc1cc(C(=O)O)cc(OCC)c1-n1cc(CC2CCC2)c2ncc(-c3c(C)nnn3C)cc21 [P-0190, 4-(3-(cyclobutylmethyl)-6-(1,4-dimethyl-1H-1,2,3-triazol-5-yl)-1H-pyrrolo[3,2-b]pyridin-1-yl)-3,5-diethoxybenzoic acid]	5.10 to 6.00
Cc1noc(C)c1-c1cnc2c(c1)c(-c1ccc(C(=O)O)cc1OC(F)(F)F)cn2CCN1CCOCC1 [P-0191, 4-(5-(3,5-dimethylisoxazol-4-yl)-1-(2-morpholinoethyl)-1H-pyrrolo[2,3-b]pyridin-3-yl)-3-(trifluoromethoxy)benzoic acid]	3.00 to 5.10
CCOc1cc(C(=O)O)cc(OCC)c1-n1cc(-c2ccc(C3CC3)nc2)c2ncc(-c3c(C)noc3C)cc21 [P-0192, 4-(3-(6-cyclopropylpyridin-3-yl)-6-(3,5-dimethylisoxazol-4-yl)-1H-pyrrolo[3,2-b]pyridin-1-yl)-3,5-diethoxybenzoic acid]	5.10 to 6.00
CCOc1cc(C(=O)O)cc(OCC)c1-n1cc(-c2cncc(Cl)c2)c2ncc(-c3c(C)noc3C)cc21 [P-0193, 4-(3-(5-chloropyridin-3-yl)-6-(3,5-dimethylisoxazol-4-yl)-1H-pyrrolo[3,2-b]pyridin-1-yl)-3,5-diethoxybenzoic acid]	5.10 to 6.00
CCOc1cc(C(=O)O)cc(OCC)c1-n1cc(-c2ccc(OC)cc2F)c2ncc(-c3c(C)noc3C)cc21 [P-0194, 4-(6-(3,5-dimethylisoxazol-4-yl)-3-(2-fluoro-4-methoxyphenyl)-1H-pyrrolo[3,2-b]pyridin-1-yl)-3,5-diethoxybenzoic acid]	5.10 to 6.00
CCOc1cc(C(=O)O)cc(OCC)c1-n1cc(-c2cnn(C)c2)c2ncc(-c3c(C)noc3C)cc21 [P-0195, 4-(6-(3,5-dimethylisoxazol-4-yl)-3-(1-methyl-1H-pyrazol-4-yl)-1H-pyrrolo[3,2-b]pyridin-1-yl)-3,5-diethoxybenzoic acid]	5.10 to 6.00
Cc1noc(C)c1-c1cnc2c(-c3ccccc3)cn(-c3ccc(C(=O)O)cc3OC(F)(F)F)c2c1 [P-0196, 4-(6-(3,5-dimethylisoxazol-4-yl)-3-phenyl-1H-pyrrolo[3,2-b]pyridin-1-yl)-3-(trifluoromethoxy)benzoic acid]	5.10 to 6.00
Cc1noc(C)c1-c1cnc2c(c1)c(-c1c(Cl)cc(C(=O)O)cc1Cl)cn2[C@@H](C)c1ccccn1 [P-0197, (S)-3,5-dichloro-4-(5-(3,5-dimethylisoxazol-4-yl)-1-(1-(pyridin-2-yl)ethyl)-1H-pyrrolo[2,3-b]pyridin-3-yl)benzoic acid]	3.00 to 5.10
Cc1noc(C)c1-c1cnc2c(c1)c(-c1c(Cl)cc(C(=O)O)cc1OC(F)(F)F)cn2C(C1CC1)C1CC1 [P-0198, 3-chloro-4-(1-(dicyclopropylmethyl)-5-(3,5-dimethylisoxazol-4-yl)-1H-pyrrolo[2,3-b]pyridin-3-yl)-5-(trifluoromethoxy)benzoic acid]	3.00 to 5.10
Cc1noc(C)c1-c1cnc2c(c1)c(-c1ccc(C(=O)O)cc1OC(F)(F)F)cn2C(CC#N)C1CC1 (stereo not shown) [P-0199, 4-(1-(2-cyano-1-cyclopropylethyl)-5-(3,5-dimethylisoxazol-4-yl)-1H-pyrrolo[2,3-b]pyridin-3-yl)-3-(trifluoromethoxy)benzoic acid]	3.00 to 5.10
Cc1noc(C)c1-c1cnc2c(c1)c(-c1ccc(C(=O)O)cc1OC(F)(F)F)cn2C(CC#N)C1CCCC1 (stereo not shown) [P-0200, 4-(1-(2-cyano-1-cyclopentylethyl)-5-(3,5-dimethylisoxazol-4-yl)-1H-pyrrolo[2,3-b]pyridin-3-yl)-3-(trifluoromethoxy)benzoic acid]	3.00 to 5.10
CCOc1cc(C(=O)O)cc(OCC)c1-n1cc(-c2cnc(OC)nc2)c2ncc(-c3c(C)noc3C)cc21 [P-0201, 4-(6-(3,5-dimethylisoxazol-4-yl)-3-(2-methoxypyrimidin-5-yl)-1H-pyrrolo[3,2-b]pyridin-1-yl)-3,5-diethoxybenzoic acid]	5.10 to 6.00

SMILES	pIC50
Cc1noc(C)c1-c1cnc2c(c1)c(-c1ccc(C(=O)O)cc1OC(F)(F)F)cn2S(=O)(=O)C1CC1 [P-0202, 4-(1-(cyclopropylsulfonyl)-5-(3,5-dimethylisoxazol-4-yl)-1H-pyrrolo[2,3-b]pyridin-3-yl)-3-(trifluoromethoxy)benzoic acid]	5.10 to 6.00
Cc1noc(C)c1-c1cnc2c(c1)c(-c1ccc(C(=O)O)cc1OC(F)(F)F)cn2-c1ccnc(C(C)C)c1 [P-0203, 4-(5-(3,5-dimethylisoxazol-4-yl)-1-(2-isopropylpyridin-4-yl)-1H-pyrrolo[2,3-b]pyridin-3-yl)-3-(trifluoromethoxy)benzoic acid]	5.10 to 6.00
Cc1noc(C)c1-c1cnc2c(c1)c(-c1ccc(C(=O)O)cc1OC(F)(F)F)cn2-c1cnccc1C#N [P-0204, 4-(1-(4-cyanopyridin-3-yl)-5-(3,5-dimethylisoxazol-4-yl)-1H-pyrrolo[2,3-b]pyridin-3-yl)-3-(trifluoromethoxy)benzoic acid]	3.00 to 5.10
CCOc1cc(C(=O)O)cc(F)c1-n1cc(-c2ccccc2)c2ncc(-c3c(C)noc3C)cc21 [P-0205, 4-(6-(3,5-dimethylisoxazol-4-yl)-3-phenyl-1H-pyrrolo[3,2-b]pyridin-1-yl)-3-ethoxy-5-fluorobenzoic acid]	5.10 to 6.00
CCOc1cccc(C#N)c1-n1cc(-c2ccccc2)c2ncc(-c3c(C)noc3C)cc21 [P-0206, 2-(6-(3,5-dimethylisoxazol-4-yl)-3-phenyl-1H-pyrrolo[3,2-b]pyridin-1-yl)-3-ethoxybenzonitrile]	3.00 to 5.10
Cc1noc(C)c1-c1cnc2c(-c3ccccc3)cn(-c3c(Cl)cccc3C#N)c2c1 [P-0207, 3-chloro-2-(6-(3,5-dimethylisoxazol-4-yl)-3-phenyl-1H-pyrrolo[3,2-b]pyridin-1-yl)benzonitrile]	5.10 to 6.00
CCOc1cc(C(=O)O)cc(OCC)c1-n1cc(C2=CCC(F)(F)CC2)c2ncc(-c3c(C)noc3C)cc21 [P-0208, 4-(3-(4,4-difluorocyclohex-1-en-1-yl)-6-(3,5-dimethylisoxazol-4-yl)-1H-pyrrolo[3,2-b]pyridin-1-yl)-3,5-diethoxybenzoic acid]	5.10 to 6.00
CCOc1cc(C(=O)O)cc(OCC)c1-n1cc(-c2ccc(F)c(Cl)c2)c2ncc(-c3c(C)noc3C)cc21 [P-0209, 4-(3-(3-chloro-4-fluorophenyl)-6-(3,5-dimethylisoxazol-4-yl)-1H-pyrrolo[3,2-b]pyridin-1-yl)-3,5-diethoxybenzoic acid]	5.10 to 6.00
CCOc1cc(C(=O)O)cc(OCC)c1-n1cc(CC2CCC2)c2ncc(-c3c(COC)noc3C)cc21 [P-0210, 4-(3-(cyclobutylmethyl)-6-(3-(methoxymethyl)-5-methylisoxazol-4-yl)-1H-pyrrolo[3,2-b]pyridin-1-yl)-3,5-diethoxybenzoic acid]	3.00 to 5.10
Cc1cnccc1-n1cc(-c2ccc(C(=O)O)cc2OC(F)(F)F)c2cc(-c3c(C)noc3C)cnc21 [P-0211, 4-(5-(3,5-dimethylisoxazol-4-yl)-1-(3-methylpyridin-4-yl)-1H-pyrrolo[2,3-b]pyridin-3-yl)-3-(trifluoromethoxy)benzoic acid]	5.10 to 6.00
Cc1noc(C)c1-c1cnc2c(c1)c(-c1ccc(C(=O)O)cc1OC(F)(F)F)cn2C1CCS(=O)(=O)CC1 [P-0212, 4-(5-(3,5-dimethylisoxazol-4-yl)-1-(1,1-dioxidotetrahydro-2H-thiopyran-4-yl)-1H-pyrrolo[2,3-b]pyridin-3-yl)-3-(trifluoromethoxy)benzoic acid]	3.00 to 5.10
Cc1noc(C)c1-c1cnc2c(c1)c(-c1ccc(C(=O)O)cc1OC(C)C)cn2C(C1CC1)C1CC1 [P-0213, 4-(1-(dicyclopropylmethyl)-5-(3,5-dimethylisoxazol-4-yl)-1H-pyrrolo[2,3-b]pyridin-3-yl)-3-isopropoxybenzoic acid]	3.00 to 5.10
Cc1noc(C)c1-c1cnc2c(c1)c(-c1ccc(C(=O)O)cc1OCC(F)(F)F)cn2C(C1CC1)C1CC1 [P-0214, 4-(1-(dicyclopropylmethyl)-5-(3,5-dimethylisoxazol-4-yl)-1H-pyrrolo[2,3-b]pyridin-3-yl)-3-(2,2,2-trifluoroethoxy)benzoic acid]	3.00 to 5.10
Cc1noc(C)c1-c1cnc2c(c1)c(-c1ccc(C(=O)O)cc1OC(F)(F)F)cn2-c1ncccc1C#N [P-0215, 4-(1-(3-cyanopyridin-2-yl)-5-(3,5-dimethylisoxazol-4-yl)-1H-pyrrolo[2,3-b]pyridin-3-yl)-3-(trifluoromethoxy)benzoic acid]	5.10 to 6.00
Cc1noc(C)c1-c1cnc2c(c1)c(-c1ccc(C(=O)O)cc1OC(F)(F)F)cn2-c1ncccc1C#CC1CC1 [P-0216, 4-(1-(3-(cyclopropylethynyl)pyridin-2-yl)-5-(3,5-dimethylisoxazol-4-yl)-1H-pyrrolo[2,3-b]pyridin-3-yl)-3-(trifluoromethoxy)benzoic acid]	3.00 to 5.10
